The values below come from patent publication US12083125B2, “Drug-induced epigenetic remodeling to prevent fibrosis” (Thomas Jefferson University, priority 2016, dated 2024).

Series [1] can be described thus: evaluation of GSKJ1, GSKJ2, GSKJ4, GSKJ5: efficacy / in vitro studies. The note with it: for efficacy / activity: ethyl esters of GSKJ1 and GSKJ2; for potency in in vitro studies: over a control, data not shown. From the text: (§1) To further review compounds in this class, we evaluated […]4, and GSKJ5. Based on our data, and review of the molecule, the highly polar carboxylate group of GSKJ1 and GSKJ2 restricts cellular permeability. […] Accordingly, for purposes of treating disease and disorders here, the most preferred active pharmaceutical compound is GSK-J4.

Series [2] in a line: evaluation of GSKJ1, GSKJ2, GSKJ4, GSKJ5: cellular permeability / bioavailability. In kind it is in vitro ADME.
Text: as §1

The nature of series [3]: testing of GSK-J4 concentration range (efficacy and toxicity). The protocol:
For example, when administering GSK-J4 to a patient, an appropriate therapeutic range comprises: about 1 μM to 10 μM concentration for a liquid, topical vehicle. Suitable doses can be generated based upon the tissue to be treated and area to be treated. […] The LD50 is otherwise known to those of skill in the art based upon the molecule of interest. The GSK-J4 can be formulated with suitable excipients and into a suitable vehicle for delivery to a human patient.

Series [4] deals with ex vivo mock cataract surgery explants. The series is described as follows: wound healing (open wound area) in ex vivo mock cataract surgery explants. In kind it is cell-based, chick. From the text:
(§2) FIG. 2A illustrates how the ex vivo mock cataract surgery explants are created. Ex vivo mock cataract surgery explants provide a powerful model in which to study wound healing as well as the development of fibrotic disease. Briefly, to create this model, the fiber cell mass is hydroeluted from the lens leaving behind lens epithelial cells that remain adherent to the lens capsule. The resultant ex vivo explant when placed in culture is star shaped, with the adherent cells located in the points of the star. In response to the injury induced by the surgery, mesenchymal cells involved in repair move to the wound edges.
As shown in FIG. 2B wound healing across the denuded basement membrane is typically completed by day 3. […]
We also determined whether GSKJ4 treatment affected wound healing. […] Open wound area (μm^2) was measured on Day 0 (D0) through Day 3 (D3) in the presence of vehicle control (DMSO) or GSKJ4. Open wound area was measured for each ex vivo capsule D0-D3 and presented in the graph+/− SEM. […]
(§3) Cells from the ex vivo mock cataract surgery explant were treated for 24 hour as indicated above with vehicle or GSK-J4. […] In FIG. 13B we determined the effect of GSKJ4 short-term treatment on wound healing. […]

For series [5], the system named is cells from the ex vivo mock cataract surgery explants. The series is described as follows: ex vivo mock cataract surgery explants: myofibroblast emergence, αSMA and Fn-EDA expression. In kind it is cell-based, chick.
Text: For example, in a PCO model, using an ex vivo lens mock cataract surgery model in chick embryos that recapitulates features of PCO, we investigated the cell reprogramming events involved in regulating changes in epigenetic markings of chromatin, which result in alterations of chromatin structure and impact gene transcriptional programs to control the emergence of myofibroblasts.
We tested this epigenetic targeting strategy using a clinically relevant ex vivo chick mock cataract surgery model that recapitulates the major features of the lens fibrotic disease, PCO, as well as a human lens cells (SRA01/04). Human SRA01/04 lens cells are studied extensively for the acquisition of a mesenchymal phenotype resulting from an Epithelial Mesenchymal Transition (EMT) after exposure to TGFβ associated with the development of lens fibrosis.
as §2
As shown in FIG. 2B wound healing across the denuded basement membrane is typically completed by day 3. Lens epithelial cells led by a leader cell population, which expresses the surface receptor CD44+ [42], move collectively to repopulate the denuded area of the wounded lens capsule (where the differentiated lens fiber cells were removed). FIG. 2C depicts the wound area over a three-day period. In FIGS. 3A and B CD44+ leader cell population that has migrated to the outside wound edge of the explants (FIG. 3A, left panel, right arrow) directs the collective migration of lens epithelial cells onto the rigid tissue culture substrate, a region we refer to as the extracapsular zone (ECZ). […] Therefore, within one model system we can assess epigenetic targeting strategies for preventing fibrosis and determine how these approaches will affect normal wound healing. This ex vivo model was used to investigate the epigenetic mechanisms (detailed below) involved in regulating cell reprogramming to a myofibroblast phenotype associated with lens fibrotic disease.
Next, we tested if manipulating histone de-methylase activity could change chromatin structure to block pro-fibrotic transcription factors from binding to DNA and the acquisition to a myofibroblast phenotype associated with fibrosis. […] Thus, treatment with GSKJ4 prevents αSMA expression in the ex vivo mock cataract surgery model.
Cells from the ex vivo mock cataract surgery explants were treated with vehicle or GSKJ4 for 24 hr. ECZ regions were treated 1 day after injury and inhibitor was washed away after 24 hour of treatment. We chose to add the inhibitor on day 1, during the time of open chromatin, the perfect timing to prevent cell reprogramming to a fibrotic phenotype. […]
as §3

In series [6] the test system is FHL124 human lens cells. The series is described as follows: TGFβ-stimulated human lens cells, western blot for FN-EDA and Collagen I. In kind it is cell-based. The following applies: FHL124 cells stimulated with TGFβ, FIG. 11. The protocol: We also performed similar studies with human lens cell culture. FHL124 human lens cells, a non-transformed spontaneously generated human lens cell line from embryonic explants, were stimulated with Transforming Growth Factor β (TGFβ), a potent inducer of the fibrotic response, in the absence or presence of the UTX inhibitor GSKJ4. Western blotting was performed with antibodies to extracellular matrix molecules associated with fibrosis, including Fibronectin EDA (FN-EDA), a splice form of FN and Collagen I. FN EDA expression is tightly linked to myofibroblast differentiation and Collagen I is a defining feature of fibrosis/scarring. GAPDH was used as a loading control for WB analysis.
(In general: In western blotting, separated proteins are transferred to a membrane and probed.)

“Also recorded” adds a separate entry of the source. Where two headings read alike, the source gives them in different places.

Turning to `CCOC(=O)CCNc1cc(N2CCc3ccccc3CC2)nc(-c2cccnc2)n1` [GSKJ5], the efficacy / activity result in series [1] is “inactive”.

As to `O=C(O)CCNc1cc(N2CCc3ccccc3CC2)nc(-c2cccnc2)n1` [GSKJ2], the cellular permeability result in series [2] (highly polar carboxylate group) is “restricts”. Besides, in series [1], the “potency in in vitro studies” value is “potent over a control”.

Turning to `CCOC(=O)CCNc1cc(N2CCc3ccccc3CC2)nc(-c2ccccn2)n1` [GSK-J4], the efficacy by concentration result in series [3] (10 μM versus 1 μM) was “higher efficacy at 10 μM than the 1 μM”. In series [3] (100 μM), the toxicity result is “began to show signs of toxicity”. The “wound healing (open wound area)” value in series [4] (Day 0 through Day 3 in presence of GSKJ4 vs DMSO, FIG. 12) was “somewhat slowed but did not prevent”. Moreover, the “wound healing (open wound area), short-term treatment” value in series [4] (treated at time of injury, day 0, for 24 hour, followed day 0 through day 4) is recorded as “does not affect”. The “myofibroblast emergence, short-term treatment” value in series [5] (24 hour treatment, FIGS. 14A and B) was “effective to block”. Further, the αSMA expression entry in series [5] (cells from ex vivo mock cataract surgery explants, FIG. 10A, B) is recorded as “prevents”. Moreover, the emergence of myofibroblasts result in series [5] (ex vivo mock cataract surgery model, FIG. 10A) is reported as “effectively suppressed”. The “Fn-EDA expression, short-term treatment” value in series [5] (treated 24 hr from day 1 after injury, washed away, lysates day 3, western blot) is “significantly inhibited”. In addition, the “αSMA expression, short-term treatment” value in series [5] (treated 24 hr from day 1 after injury, washed away, lysates day 3, western blot (αSMA to GAPDH)) is given as “significantly inhibited; also recorded: effectively blocked”. Also, the bioavailability entry in series [2] (ethyl ester masking the acid group) is recorded as “increased”. In series [1], the efficacy / activity entry is listed as “greater efficacy”. Also, in series [6], the “TGFβ induced expression of Collagen I” value is “blocked” and the “TGFβ induced expression of FN EDA” value is “blocked”.

Turning to `O=C(O)CCNc1cc(N2CCc3ccccc3CC2)nc(-c2ccccn2)n1` [GSKJ1], the cellular permeability result in series [2] is “restricts”. Moreover, the “potency in in vitro studies” value in series [1] is “potent over a control”.
